According to ChEMBL document CHEMBL3813616, “Discovery of novel 7-azaindoles as PDK1 inhibitors” (Bioorg Med Chem Lett, 2016):
One block for each compound: values may come before it.

Experiments:
[1] = biological target: Tyrosine-protein kinase JAK2 (Homo sapiens) (UniProt O60674); assay: Inhibition of JAK2 (unknown origin) assessed as enzyme activity at 1 uM using 33P ATP by radioactive filter binding assay; set-up: scale not given: the % may be the effect or the level left
[2] = biological target: Mitogen-activated protein kinase 9 (Homo sapiens) (UniProt P45984); assay: Inhibition of human JNK2 (1 to 424 residues) assessed as enzyme activity at 1 uM using 33P ATP by radioactive filter binding assay; set-up: scale not given: the % may be the effect or the level left
[3] = biological target: Serine/threonine-protein kinase STK11 (Homo sapiens) (UniProt Q15831); assay: Inhibition of human LKB1 (1 to 433 residues) assessed as enzyme activity at 1 uM using 33P ATP by radioactive filter binding assay; set-up: scale not given: the % may be the effect or the level left
[4] = biological target: Serine/threonine-protein kinase MARK1 (Homo sapiens) (UniProt Q9P0L2); assay: Inhibition of human MARK1 (2 to 795 residues) assessed as enzyme activity at 1 uM using 33P ATP by radioactive filter binding assay; set-up: scale not given: the % may be the effect or the level left
Serine/threonine-protein kinase MARK1 (Homo sapiens), sequence (Q9P0L2 whole entry, looked up, the tested form may be a part): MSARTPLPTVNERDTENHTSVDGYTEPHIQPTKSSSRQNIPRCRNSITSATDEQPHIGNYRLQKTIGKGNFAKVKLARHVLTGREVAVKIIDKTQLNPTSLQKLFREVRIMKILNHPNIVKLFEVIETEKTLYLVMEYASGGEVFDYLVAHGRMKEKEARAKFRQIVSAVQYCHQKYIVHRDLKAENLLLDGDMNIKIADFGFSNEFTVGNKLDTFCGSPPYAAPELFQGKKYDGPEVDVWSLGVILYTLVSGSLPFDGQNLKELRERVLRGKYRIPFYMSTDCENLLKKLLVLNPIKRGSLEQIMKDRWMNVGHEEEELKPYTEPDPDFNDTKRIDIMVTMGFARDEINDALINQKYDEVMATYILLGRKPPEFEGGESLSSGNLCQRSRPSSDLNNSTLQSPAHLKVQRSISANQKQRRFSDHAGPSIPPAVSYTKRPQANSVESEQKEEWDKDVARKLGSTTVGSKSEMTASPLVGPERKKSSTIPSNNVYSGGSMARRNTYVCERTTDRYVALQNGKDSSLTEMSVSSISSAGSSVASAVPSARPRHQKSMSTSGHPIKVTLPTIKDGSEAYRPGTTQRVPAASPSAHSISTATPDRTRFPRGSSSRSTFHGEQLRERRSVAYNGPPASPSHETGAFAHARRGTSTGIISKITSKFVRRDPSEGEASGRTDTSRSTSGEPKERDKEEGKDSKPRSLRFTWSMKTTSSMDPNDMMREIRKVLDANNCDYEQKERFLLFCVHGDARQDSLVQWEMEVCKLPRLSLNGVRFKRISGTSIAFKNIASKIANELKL

[5] = biological target: MAP/microtubule affinity-regulating kinase 4 (Homo sapiens) (UniProt Q96L34); assay: Inhibition of human MARK4 (2 to 752 residues) assessed as enzyme activity at 1 uM using 33P ATP by radioactive filter binding assay; set-up: scale not given: the % may be the effect or the level left
MAP/microtubule affinity-regulating kinase 4 (Homo sapiens), sequence (Q96L34 whole entry, the tested form may be a part): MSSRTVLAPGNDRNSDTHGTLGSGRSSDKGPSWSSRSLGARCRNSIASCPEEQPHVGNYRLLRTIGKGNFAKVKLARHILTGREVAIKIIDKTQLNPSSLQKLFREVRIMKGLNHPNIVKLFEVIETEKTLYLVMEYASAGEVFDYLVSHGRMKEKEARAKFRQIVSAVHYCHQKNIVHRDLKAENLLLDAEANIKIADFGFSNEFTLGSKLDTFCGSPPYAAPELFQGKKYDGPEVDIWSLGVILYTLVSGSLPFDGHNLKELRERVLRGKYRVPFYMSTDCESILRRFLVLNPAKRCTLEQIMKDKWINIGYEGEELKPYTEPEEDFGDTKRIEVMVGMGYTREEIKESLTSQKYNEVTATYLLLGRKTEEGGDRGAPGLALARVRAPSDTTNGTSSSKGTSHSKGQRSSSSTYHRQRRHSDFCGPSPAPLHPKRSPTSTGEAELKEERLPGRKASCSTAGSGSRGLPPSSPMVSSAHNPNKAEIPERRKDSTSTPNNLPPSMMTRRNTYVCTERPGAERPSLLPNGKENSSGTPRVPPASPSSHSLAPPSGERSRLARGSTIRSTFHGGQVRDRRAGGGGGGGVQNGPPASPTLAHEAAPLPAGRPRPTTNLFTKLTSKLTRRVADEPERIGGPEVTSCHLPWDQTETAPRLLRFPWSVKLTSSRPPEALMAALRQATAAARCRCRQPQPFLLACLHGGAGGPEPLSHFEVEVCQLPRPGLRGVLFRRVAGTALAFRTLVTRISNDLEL

[6] = biological target: Mitogen-activated protein kinase kinase kinase 1 (Homo sapiens) (UniProt Q13233); assay: Inhibition of human MEKK1 (877 to 1563 residues) assessed as enzyme activity at 1 uM using 33P ATP by radioactive filter binding assay; set-up: scale not given: the % may be the effect or the level left
[7] = biological target: Dual specificity mitogen-activated protein kinase kinase 2 (Homo sapiens) (UniProt P36507); assay: Inhibition of human MKK2 (2 to 400 residues) assessed as enzyme activity at 1 uM using 33P ATP by radioactive filter binding assay; set-up: scale not given: the % may be the effect or the level left
[8] = biological target: Dual specificity mitogen-activated protein kinase kinase 6 (Homo sapiens) (UniProt P52564); assay: Inhibition of human MKK6 (2 to 334 residues) assessed as enzyme activity at 1 uM using 33P ATP by radioactive filter binding assay; set-up: scale not given: the % may be the effect or the level left
[9] = biological target: Mitogen-activated protein kinase kinase kinase 11 (Homo sapiens) (UniProt Q16584); assay: Inhibition of human MLK3 (96 to 386 residues) assessed as enzyme activity at 1 uM using 33P ATP by radioactive filter binding assay; set-up: scale not given: the % may be the effect or the level left
[10] = biological target: NUAK family SNF1-like kinase 1 (Homo sapiens) (UniProt O60285); assay: Inhibition of human NUAK1 (2 to 660 residues) assessed as enzyme activity at 1 uM using 33P ATP by radioactive filter binding assay; set-up: scale not given: the % may be the effect or the level left
[11] = biological target: Serine/threonine-protein kinase 33 (Homo sapiens) (UniProt Q9BYT3); assay: Inhibition of human STK33 (1 to 514 residues) assessed as enzyme activity at 1 uM using 33P ATP by radioactive filter binding assay; set-up: scale not given: the % may be the effect or the level left
[12] = biological target: Serine/threonine-protein kinase tousled-like 1 (Homo sapiens) (UniProt Q9UKI8); assay: Inhibition of human TLK1 (1 to 766 residues) assessed as enzyme activity at 1 uM using 33P ATP by radioactive filter binding assay; set-up: scale not given: the % may be the effect or the level left
[13] = biological target: High affinity nerve growth factor receptor (Homo sapiens) (UniProt P04629); assay: Inhibition of human TrkA (441 to 760 residues) assessed as enzyme activity at 1 uM using 33P ATP by radioactive filter binding assay; set-up: scale not given: the % may be the effect or the level left
[14] = biological target: Serine/threonine-protein kinase BRSK1 (Homo sapiens) (UniProt Q8TDC3); assay: Inhibition of human BRSK1 (2 to 778 residues) assessed as enzyme activity at 1 uM using 33P ATP by radioactive filter binding assay; set-up: scale not given: the % may be the effect or the level left
Serine/threonine-protein kinase BRSK1 (Homo sapiens), sequence (Q8TDC3 whole entry, the tested form may be a part): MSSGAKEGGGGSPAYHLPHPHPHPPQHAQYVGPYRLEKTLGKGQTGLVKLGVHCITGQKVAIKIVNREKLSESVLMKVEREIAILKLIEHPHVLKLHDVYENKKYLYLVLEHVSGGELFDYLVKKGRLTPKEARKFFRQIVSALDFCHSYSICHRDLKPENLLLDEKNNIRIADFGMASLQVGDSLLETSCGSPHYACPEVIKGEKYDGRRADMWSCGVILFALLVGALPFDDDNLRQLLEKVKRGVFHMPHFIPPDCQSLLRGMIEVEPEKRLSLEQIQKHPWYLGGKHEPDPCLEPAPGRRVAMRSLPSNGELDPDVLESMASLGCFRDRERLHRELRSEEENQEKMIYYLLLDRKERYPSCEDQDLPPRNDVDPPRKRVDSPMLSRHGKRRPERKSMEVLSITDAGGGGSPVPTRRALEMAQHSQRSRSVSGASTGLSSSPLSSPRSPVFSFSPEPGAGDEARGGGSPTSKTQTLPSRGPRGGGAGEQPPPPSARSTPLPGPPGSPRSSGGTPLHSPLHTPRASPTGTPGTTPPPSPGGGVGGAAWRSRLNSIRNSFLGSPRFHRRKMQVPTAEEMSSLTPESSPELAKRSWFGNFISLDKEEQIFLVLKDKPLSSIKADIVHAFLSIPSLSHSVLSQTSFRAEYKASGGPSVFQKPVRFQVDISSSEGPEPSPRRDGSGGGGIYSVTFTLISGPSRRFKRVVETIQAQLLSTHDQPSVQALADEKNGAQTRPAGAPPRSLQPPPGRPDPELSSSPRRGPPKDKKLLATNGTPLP

[15] = biological target: Calcium/calmodulin-dependent protein kinase kinase 1 (Homo sapiens) (UniProt Q8N5S9); assay: Inhibition of CAMKK1 (unknown origin) assessed as enzyme activity at 1 uM using 33P ATP by radioactive filter binding assay; set-up: scale not given: the % may be the effect or the level left
[16] = biological target: Dual specificity protein kinase CLK2 (Homo sapiens) (UniProt P49760); assay: Inhibition of human CLK2 (138 to 499 residues) assessed as enzyme activity at 1 uM using 33P ATP by radioactive filter binding assay; set-up: scale not given: the % may be the effect or the level left
Dual specificity protein kinase CLK2 (Homo sapiens), sequence (P49760 whole entry, looked up, the tested form may be a part): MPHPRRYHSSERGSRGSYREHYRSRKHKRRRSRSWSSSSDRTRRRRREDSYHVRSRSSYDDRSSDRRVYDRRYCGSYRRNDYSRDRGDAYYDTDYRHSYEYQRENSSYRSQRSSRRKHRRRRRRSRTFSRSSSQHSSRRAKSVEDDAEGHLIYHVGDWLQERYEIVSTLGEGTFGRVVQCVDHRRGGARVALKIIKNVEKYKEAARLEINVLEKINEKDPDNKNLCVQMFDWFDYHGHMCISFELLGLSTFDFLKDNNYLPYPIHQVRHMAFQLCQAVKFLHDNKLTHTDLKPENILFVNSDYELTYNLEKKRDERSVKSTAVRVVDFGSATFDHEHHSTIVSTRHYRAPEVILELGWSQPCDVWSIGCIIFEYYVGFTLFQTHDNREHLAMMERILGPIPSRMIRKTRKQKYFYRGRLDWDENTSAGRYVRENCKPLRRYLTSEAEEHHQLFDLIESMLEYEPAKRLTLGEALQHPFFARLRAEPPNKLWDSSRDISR

[17] = biological target: Death-associated protein kinase 1 (Homo sapiens) (UniProt P53355); assay: Inhibition of human DAPK1 (1 to 363 residues) assessed as enzyme activity at 1 uM using 33P ATP by radioactive filter binding assay; set-up: scale not given: the % may be the effect or the level left
[18] = biological target: Eukaryotic translation initiation factor 2-alpha kinase 3 (Homo sapiens) (UniProt Q9NZJ5); assay: Inhibition of human EIF2AK3 (536 to 1116 residues) assessed as enzyme activity at 1 uM using 33P ATP by radioactive filter binding assay; set-up: scale not given: the % may be the effect or the level left
[19] = biological target: Ephrin type-A receptor 4 (Homo sapiens) (UniProt P54764); assay: Inhibition of human EPHA4 (570 to 986 residues) assessed as enzyme activity at 1 uM using 33P ATP by radioactive filter binding assay; set-up: scale not given: the % may be the effect or the level left
[20] = biological target: Mitogen-activated protein kinase kinase kinase kinase 2 (Homo sapiens) (UniProt Q12851); assay: Inhibition of human GCK (2 to 812 residues) assessed as enzyme activity at 1 uM using 33P ATP by radioactive filter binding assay; set-up: scale not given: the % may be the effect or the level left
Mitogen-activated protein kinase kinase kinase kinase 2 (Homo sapiens), sequence (Q12851 whole entry, the tested form may be a part): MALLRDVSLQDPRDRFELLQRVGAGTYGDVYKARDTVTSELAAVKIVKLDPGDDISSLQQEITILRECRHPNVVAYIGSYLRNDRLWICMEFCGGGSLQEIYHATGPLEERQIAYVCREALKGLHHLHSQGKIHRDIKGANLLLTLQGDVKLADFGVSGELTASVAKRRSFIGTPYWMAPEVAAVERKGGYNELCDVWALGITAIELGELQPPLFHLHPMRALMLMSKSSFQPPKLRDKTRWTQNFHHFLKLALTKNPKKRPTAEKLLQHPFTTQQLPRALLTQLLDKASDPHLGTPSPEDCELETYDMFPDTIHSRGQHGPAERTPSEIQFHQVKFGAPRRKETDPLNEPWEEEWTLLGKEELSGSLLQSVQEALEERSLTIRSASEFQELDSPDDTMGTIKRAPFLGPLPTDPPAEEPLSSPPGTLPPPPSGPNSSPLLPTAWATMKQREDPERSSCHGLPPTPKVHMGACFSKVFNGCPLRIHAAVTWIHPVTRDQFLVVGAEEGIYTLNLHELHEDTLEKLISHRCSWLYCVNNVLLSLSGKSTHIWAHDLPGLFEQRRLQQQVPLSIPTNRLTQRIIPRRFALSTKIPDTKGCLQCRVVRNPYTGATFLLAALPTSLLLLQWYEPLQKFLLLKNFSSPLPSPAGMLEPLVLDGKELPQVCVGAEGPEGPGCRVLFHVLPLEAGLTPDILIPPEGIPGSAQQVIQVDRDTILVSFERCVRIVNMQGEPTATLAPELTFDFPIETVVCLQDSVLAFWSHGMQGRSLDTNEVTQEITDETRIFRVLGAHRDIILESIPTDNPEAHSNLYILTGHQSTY

[21] = biological target: Homeodomain-interacting protein kinase 1 (Homo sapiens) (UniProt Q86Z02); assay: Inhibition of human HIPK1 (158 to 555 residues) assessed as enzyme activity at 1 uM using 33P ATP by radioactive filter binding assay; set-up: scale not given: the % may be the effect or the level left
Homeodomain-interacting protein kinase 1 (Homo sapiens), sequence (Q86Z02 whole entry, looked up, the tested form may be a part): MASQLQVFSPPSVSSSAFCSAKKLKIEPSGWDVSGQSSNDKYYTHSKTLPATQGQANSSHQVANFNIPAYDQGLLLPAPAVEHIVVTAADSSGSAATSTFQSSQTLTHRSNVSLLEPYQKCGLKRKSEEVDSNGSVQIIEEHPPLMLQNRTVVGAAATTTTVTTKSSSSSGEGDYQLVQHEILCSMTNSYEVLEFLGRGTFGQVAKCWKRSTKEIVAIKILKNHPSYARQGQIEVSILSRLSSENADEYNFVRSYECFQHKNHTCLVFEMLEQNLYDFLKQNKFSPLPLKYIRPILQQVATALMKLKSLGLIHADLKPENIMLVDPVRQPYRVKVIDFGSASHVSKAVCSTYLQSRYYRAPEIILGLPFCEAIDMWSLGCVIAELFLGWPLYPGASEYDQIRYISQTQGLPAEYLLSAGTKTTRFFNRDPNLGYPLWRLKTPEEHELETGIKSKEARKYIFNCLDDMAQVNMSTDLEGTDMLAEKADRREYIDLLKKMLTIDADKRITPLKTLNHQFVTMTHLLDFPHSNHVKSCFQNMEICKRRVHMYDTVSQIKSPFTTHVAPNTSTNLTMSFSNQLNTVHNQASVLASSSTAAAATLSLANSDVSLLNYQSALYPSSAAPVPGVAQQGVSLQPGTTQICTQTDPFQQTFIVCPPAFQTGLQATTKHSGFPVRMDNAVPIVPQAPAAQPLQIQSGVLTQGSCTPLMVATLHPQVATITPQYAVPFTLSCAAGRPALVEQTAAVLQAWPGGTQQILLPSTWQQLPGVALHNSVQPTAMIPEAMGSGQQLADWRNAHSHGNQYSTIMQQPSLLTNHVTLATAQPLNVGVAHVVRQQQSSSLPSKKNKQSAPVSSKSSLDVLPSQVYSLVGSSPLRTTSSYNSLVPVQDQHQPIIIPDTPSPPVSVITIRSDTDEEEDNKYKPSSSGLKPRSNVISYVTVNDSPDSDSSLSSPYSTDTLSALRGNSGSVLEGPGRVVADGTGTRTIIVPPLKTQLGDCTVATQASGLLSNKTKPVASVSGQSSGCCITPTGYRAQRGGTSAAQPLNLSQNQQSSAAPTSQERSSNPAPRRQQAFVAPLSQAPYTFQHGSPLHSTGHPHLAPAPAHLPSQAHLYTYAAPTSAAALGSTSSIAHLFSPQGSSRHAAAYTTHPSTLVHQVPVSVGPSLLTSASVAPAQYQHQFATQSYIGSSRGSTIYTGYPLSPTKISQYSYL

[22] = Efflux ratio of permeability from basolateral to apical over apical to basolateral side in human Caco2 cells; assay type: ADME, cell-based; conditions: Caco-2
[23] = biological target: Phosphatidylinositol 4,5-bisphosphate 3-kinase catalytic subunit delta isoform (Homo sapiens) (UniProt O00329); assay: Inhibition of PI3K delta (unknown origin) at 10 uM

- Activity [1]: -25%
- Activity [2]: -1%
- Activity [3]: -18%
- Activity [4]: -26%
- Activity [5]: 35%
- Activity [6]: -10%
- Activity [7]: -34%
- Activity [8]: -13%
- Activity [9]: -35%
- Activity [10]: -31%
- Activity [11]: -23%
- Activity [12]: -14%
- Activity [13]: -30%
- Activity [14]: -4%
- Activity [15]: -33%
- Activity [16]: -98%
- Activity [18]: -9%
- Activity [19]: 15%
- Activity [20]: -83%
- Activity [21]: -75%
SMILES: Nc1nccc(-c2c[nH]c3ncccc23)n1 [MERIOLIN 1]
- Activity [17]: -28%

- Ratio [22]: 37
SMILES: CCCCc1cc(-c2c[nH]c3ncc(-c4cnn(C5CCNCC5)c4)cc23)nc(N)n1

- inhibition [23]: 77%
SMILES: CCc1cc(-c2c[nH]c3ncc(-c4cnn(C5CCNCC5)c4)cc23)nc(N)n1
